Source: patent US11459308B2 (priority 2016, dated 2022)

Experiments:
in vitro = details: African green monkey
[1] = system: authentic EBOV (EBOV-Zaire 1995); assay: microbe, parasite or virus in culture; format: cell-based, Ebola virus; details: Zaire ebolavirus, Vero, 48 h, read-out: infectious EBOV-Z IC50
rVSV-EBOV GP = assay: microbe, parasite or virus in culture; format: cell-based, Zaire Ebolavirus; details: Zaire ebolavirus, read-out: rVSV-EBOV IC50

SMILES	CC50 (in vitro) [µM]	IC50 [1] [µM]	IC50 (rVSV-EBOV GP) [µM]
Cc1cccc(C(Nc2cc(N3CCN(C)CC3)ccc2[N+](=O)[O-])c2ccccc2)c1 (stereo not drawn) [MBX 3634, 2-[phenyl(m-tolyl)methylamino]-4-(4-methylpiperazin-1-yl)nitrobenzene]	> 100	3	3.4
CC(C)N(CCNc1ccc([N+](=O)[O-])c(NC(c2ccccc2)c2ccccc2)c1)C(C)C [MBX 4336, N^3-benzhydryl-N^1-(2-(diisopropylamino)ethyl)-4-nitrobenzene-1,3-diamine]	12	0.56	0.39
CN1CCN(c2ccc([N+](=O)[O-])c(NC3(c4ccccc4)CC3)c2)CC1 [MBX 4295, 5-(4-methylpiperazin-1-yl)-2-nitro-N-(1-phenylcyclopropyl)aniline]	58	–	16.2
O=[N+]([O-])c1ccc(N2CCN(C3CCC3)CC2)cc1NC(c1ccccc1)c1ccccc1 [MBX 3589, 1-(benzhydrylamino)-5-[4-(cyclobutyl)piperazin-1-yl]-2-nitrobenzene]	> 200	8	0.83
CCN(CC)c1ccc([N+](=O)[O-])c(NC(c2ccccc2)c2ccccc2)c1 [MBX 3696, 2-benzhydrylamino-4-(diethylamino)nitrobenzene]	> 100	–	> 25
CN1CCN(c2ccc3nnn(C(c4ccccc4)c4ccccc4)c3c2)CC1 [MBX 3537A, 1-benzhydryl-6-(4-methylpiperazin-1-yl)-benzo[d][1,2,3]triazole]	41	2.3	2.3
CN(C)CCCNc1ccc2ncn(C(c3ccccc3)c3ccccc3)c2c1 [MBX 4252, N^1-(1-benzhydryl-1H-benzo[d]imidazol-6-yl)-N^3,N^3-dimethylpropane-1,3-diamine]	50	8.62	3.93
CN(C)CCNc1ccc([N+](=O)[O-])c(NC(c2ccccc2)c2ccccc2)c1 [MBX 4334, N^3-benzhydryl-N^1-(2-(dimethylamino)ethyl)-4-nitrobenzene-1,3-diamine]	16	0.82	1.04
CCCN1CCN(c2ccc([N+](=O)[O-])c(NC(c3ccccc3)c3ccccc3)c2)CC1 [MBX 3566, 1-(benzhydrylamino)-5-(4-propylpiperazin-1-yl)-2-nitrobenzene]	> 200	1.6	2.4
c1ccc(C(c2ccccc2)n2cnc3ccc(N4CCNCC4)nc32)cc1 [MBX 4214, 3-benzhydryl-5-(piperazin-1-yl)-3H-imidazo[4,5-b]pyridine]	105	–	3
O=[N+]([O-])c1ccc(N2CCN(CCc3ccccc3)CC2)cc1NC(c1ccccc1)c1ccccc1 [MBX 3623, 2-benzhydrylamino-4-(4-phenethylpiperazin-1-yl)nitrobenzene]	> 100	–	> 25
CN1CCN(c2ccc([N+](=O)[O-])c(NC(c3ccccc3)c3ccccn3)c2)CC1 (stereo not drawn) [MBX 3647, 2-[(pyridin-2-yl)(phenyl)methylamino]-4-(4-methylpiperazin-1-yl)nitrobenzene]	> 100	–	> 25
O=[N+]([O-])c1ccc(N2CCOCC2)cc1NC(c1ccccc1)c1ccccc1 [PPZ-10]	> 100	–	5.5
O=[N+]([O-])c1ccc(N2CCCCC2)cc1NC(c1ccccc1)c1ccccc1 [MBX 3702, 2-benzhydrylamino-4-(piperidin-1-yl)-1-nitrobenzene]	> 100	–	> 25
c1ccc(C(c2ccccc2)n2cnc3ccc(-c4cccnc4)cc32)cc1 [MBX 4294, 1-benzhydryl-6-(pyridin-3-yl)-1H-benzo[d]imidazole]	59	–	15.6
c1ccc(C(c2ccccc2)n2cnc3ccc(-c4ccncc4)cc32)cc1 [MBX 4278, 1-benzhydryl-6-(pyridin-4-yl)-1H-benzo[d]imidazole]	4.2	–	8.98
COc1cccc(C(Nc2cc(N3CCN(C)CC3)ccc2[N+](=O)[O-])c2ccccc2)c1 (stereo not drawn) [MBX 3641, 2-[(3-methoxyphenyl)(phenyl)methylamino]-4-(4-methylpiperazin-1-yl)nitrobenzene]	26	–	> 25
COc1ccccc1C(Nc1cc(N2CCN(C)CC2)ccc1[N+](=O)[O-])c1ccccc1 (stereo not drawn) [MBX 3635, 2-[phenyl(2-methoxyphenyl)methylamino]-4-(4-methylpiperazin-1-yl)nitrobenzene]	14	–	2.5
c1ccc(C(c2ccccc2)n2cnc3ccc(N4CCN5CCCCC5C4)cc32)cc1 (stereo not drawn) [MBX 4211, 2-(1-benzhydryl-1H-benzo[d]imidazol-6-yl)octahydro-1H-pyrido[1,2-a]pyrazine]	195	–	2
CCOC(=O)CC(Nc1cc(N2CCN(C)CC2)ccc1[N+](=O)[O-])c1ccccc1 (stereo not drawn) [MBX 4329, ethyl 3-((5-(4-methylpiperazin-1-yl)-2-nitrophenyl)amino)-3-phenylpropanoate]	45	–	10.4

SMILES	CC50 (in vitro) [µM]	IC50 [1] [µM]	IC50 (rVSV-EBOV GP) [µM]
CN(C)C1CCN(c2ccc([N+](=O)[O-])c(NC(c3ccccc3)c3ccccc3)c2)CC1 [MBX 3749, 2-(benzhydrylamino)-4-[4-(dimethylamino)piperidin-1-yl]-1-nitrobenzene]	7.7	–	0.7
CN1CCCN(c2ccc([N+](=O)[O-])c(NC(c3ccccc3)c3ccccc3)c2)CC1 [MBX 3700, 2-benzhydrylamino-4-(4-methyl-1,4-diazepan-1-yl)-1-nitrobenzene]	7.6	–	< 0.1
CN1CCN(c2ccc3ncn(C(C)(C)c4ccccc4)c3c2)CC1 [MBX 4213, 6-(4-methylpiperazin-1-yl)-1-(2-phenylpropan-2-yl)-1H-benzo[d]imidazole]	> 200	–	200
O=[N+]([O-])c1ccc(N2CCC(N3CCCCC3)CC2)cc1NC(c1ccccc1)c1ccccc1 [MBX 3747, 2-(benzhydrylamino)-4-[(1,4′-bipiperidin)-1′-yl]-1-nitrobenzene]	7.5	–	0.58
O=[N+]([O-])c1ccc(-c2cccnc2)cc1NC(c1ccccc1)c1ccccc1 [MBX 4279, N-benzhydryl-2-nitro-5-(pyridin-3-yl)aniline]	49	–	12.4
c1ccc(C(c2ccccc2)n2cnc3cnc(N4CCNCC4)cc32)cc1 [MBX 4215A, 1-benzhydryl-6-(piperazin-1-yl)-1H-imidazo[4,5-c]pyridine bis(2,2,2-trifluoroacetate)]	94	–	2.8
COc1ccc(C(Nc2cc(N3CCN(C)CC3)ccc2[N+](=O)[O-])c2ccccc2)cc1 (stereo not drawn) [MBX 3642, 2-[(4-methoxyphenyl)(phenyl)methylamino]-4-(4-methylpiperazin-1-yl)nitrobenzene]	33	–	> 25
Cc1ccc(C(Nc2cc(N3CCN(C)CC3)ccc2[N+](=O)[O-])c2ccccc2)cc1 (stereo not drawn) [MBX 3687, 2-[(phenyl)(p-tolyl)methylamino]-4-(4-methylpiperazin-1-yl)nitrobenzene]	16	–	2.2
O=[N+]([O-])c1ccc(-c2ccncc2)cc1NC(c1ccccc1)c1ccccc1 [MBX 4277, N-benzhydryl-2-nitro-5-(pyridin-4-yl)aniline]	40	–	14.6
CN1CCC(N(C)c2ccc([N+](=O)[O-])c(NC(c3ccccc3)c3ccccc3)c2)CC1 [MBX 3742, 2-(benzhydrylamino)-4-[methyl(1-methylpiperidin-4-yl)amino]-1-nitrobenzene]	3.3	–	1.5
CN1CCN(c2ccc3[nH]c(=O)n(C(c4ccccc4)c4ccccc4)c3c2)CC1 [MBX 3526, 1-benzhydryl-6-(4-methylpiperazin-1-yl)-1H-benzo[d]imidazol-2(3H)-one]	26	–	2.9
CN1CCN(c2ccc([N+](=O)[O-])c(NC(c3ccccc3)c3ccc(Cl)cc3)c2)CC1 (stereo not drawn) [MBX 3644, 2-[(4-chlorophenyl)(phenyl)methylamino]-4-(4-methylpiperazin-1-yl)nitrobenzene]	18	–	1.4
O=[N+]([O-])c1ccc(N2CCSCC2)cc1NC(c1ccccc1)c1ccccc1 [MBX 3699, 2-benzhydrylamino-4-thiomorpholino-1-nitrobenzene]	> 100	–	> 25
CCOC(=O)CN1CCN(c2ccc([N+](=O)[O-])c(NC(c3ccccc3)c3ccccc3)c2)CC1 [MBX 3947, 2-(benzhydrylamino)-4-[4-(2-ethoxy-2-oxoethyl)piperazin-1-yl]-1-nitrobenzene]	> 100	–	18
O=[N+]([O-])c1ccc(N2CCN(c3ccccc3)CC2)cc1NC(c1ccccc1)c1ccccc1 [MBX 3624, 2-benzhydrylamino-4-(4-phenylpiperazin-1-yl)nitrobenzene]	> 100	–	> 25
CN1CCN(c2ccc([N+](=O)[O-])c(NC(c3ccccc3)c3cccnc3)c2)CC1 (stereo not drawn) [MBX 3648, 2-[(pyridin-3-yl)(phenyl)methylamino]-4-(4-methylpiperazin-1-yl)nitrobenzene]	17	–	> 25
CN1CCN(c2ccc([N+](=O)[O-])c(NC(=O)c3ccccc3)c2)CC1 [MBX 4328, N-[5-(4-methylpiperazin-1-yl)-2-nitrophenyl]benzamide]	60	–	11.5
CN1CCN(c2ccc([N+](=O)[O-])c(NC(c3ccccc3)c3ccncc3)c2)CC1 (stereo not drawn) [MBX 3670, 2-[(pyridin-4-yl)(phenyl)methylamino]-4-(4-methylpiperazin-1-yl)nitrobenzene]	45	–	4.5
CN1CCN(c2ccc([N+](=O)[O-])c(NC3(c4ccccc4)CCCC3)c2)CC1 [MBX 4296, 5-(4-methylpiperazin-1-yl)-2-nitro-N-(1-phenylcyclopentyl)aniline]	> 200	–	5.89
CN1CCN(c2ccc([N+](=O)[O-])c(NC(c3ccccc3)c3ccccc3)c2)CC1=O [MBX 3695, 2-benzhydrylamino-4-(4-methyl-3-oxopiperazin-1-yl)nitrobenzene]	> 100	–	16
